# Reference: BindingDB's records for doi:10.1021/acsmedchemlett.1c00082 (Bristol Myers Squibb, 2021)
# Test: Antagonist activity at CCR2 in human peripheral blood mononuclear cells assessed as reduction in MCP1-induced chemotaxis measured after 30 mins by calcein-AM dye based fluorescence assay
smiles,measurement,value
CN[C@@H]1CC[C@H](N2CC[C@H](Nc3ncnc4ccc(C(F)(F)F)cc34)C2=O)[C@H](NC(C)=O)C1,IC50,1.7 nM
